Test results: ChEMBL document CHEMBL1144041, “Docking-based 3D-QSAR study for 11beta-HSD1 inhibitors” (Bioorg Med Chem Lett, 2008)

Target: 11-beta-hydroxysteroid dehydrogenase 1 (Homo sapiens, UniProt P28845)
Assay: Inhibition of 11beta-HSD1

Sequence of 11-beta-hydroxysteroid dehydrogenase 1 (P28845 whole entry): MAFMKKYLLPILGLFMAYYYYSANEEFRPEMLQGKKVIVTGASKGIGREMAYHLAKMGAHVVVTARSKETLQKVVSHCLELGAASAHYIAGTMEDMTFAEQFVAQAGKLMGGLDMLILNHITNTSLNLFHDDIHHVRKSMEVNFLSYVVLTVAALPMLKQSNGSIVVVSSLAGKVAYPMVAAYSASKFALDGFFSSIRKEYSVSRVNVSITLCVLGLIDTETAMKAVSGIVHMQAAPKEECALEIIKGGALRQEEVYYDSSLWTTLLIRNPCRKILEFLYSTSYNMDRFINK

| IC50 [nM] | Structure (SMILES) |
| --- | --- |
| 11 | CCCn1c(CC)nnc1C12CC3CC(CC(C3)C1)C2 |
| 186 | CN1CCN(c2ccc(OC(C)(C)C(=O)N[C@H]3C4CC5CC3C[C@](C(N)=O)(C5)C4)nc2)CC1 |
| 11 | CC(C)(Oc1ccc(C#N)cn1)C(=O)N[C@H]1C2COCC1C[C@H](C(N)=O)C2 |
| 14.1 | O=C(Nc1cccc(C(=O)N2CCC[C@H]3CCCC[C@@H]32)c1)c1ccccc1 |
| 1070 | CCC1CCCCN1C(=O)c1ccc(NC(=O)c2ccc(Cl)cc2Cl)cc1 (stereo not drawn) |
| 21.9 | Cn1c(-c2ccc(C=O)cc2Cl)nnc1C12CCC(c3nc(-c4ccc(F)cc4)no3)(CC1)CC2 |
| 46.8 | CC(C)(C(=O)N[C@H]1C2CC3CC1C[C@](C(N)=O)(C3)C2)c1ccc(N2CCOCC2)nc1 |
| 5.01 | CCCCCC12CCC(c3nnc4n3CCCCC4)(CC1)CC2 |
| 28.8 | CNc1ccc(C(C)(C)C(=O)N[C@H]2C3CC4CC2C[C@](C(N)=O)(C4)C3)cn1 |
| 1580 | O=C(Nc1ccc(C(=O)N2CCC[C@H]3CCCC[C@@H]32)cc1)c1ccccc1Cl |
| 72.4 | CCCCn1c(C)nnc1C12CC3CC(CC(C3)C1)C2 |
| 5.01 | CC(C)(Oc1ccc(-n2cccn2)cn1)C(=O)N[C@H]1C2CC3CC1C[C@](C(N)=O)(C3)C2 |
| 1100 | O=C(Nc1ccc(C(=O)N2CCC[C@H]3CCCC[C@@H]32)cc1)c1ccc(Cl)cc1 |
| 21.9 | CC(C)(Oc1ccc(Cl)cc1)C(=O)N[C@H]1C2CCCC1C[C@H](C(N)=O)C2 |
| 52.5 | CCCc1nnc(C23CC4CC(CC(C4)C2)C3)n1CC |
| 50.1 | O=C(c1ccc(NCc2ccc(F)cc2)cc1)N1CCC[C@H]2CCCC[C@@H]21 |
| 7940 | CC1CCCCN1C(=O)c1ccc(NC(=O)c2ccc(Cl)cc2Cl)cc1 (stereo not drawn) |
| 14.1 | CC(C)(C(=O)N[C@H]1C2CC3CC1C[C@](C(N)=O)(C3)C2)c1ccc(C#N)cn1 |
| 380 | O=C(Cc1ccccc1)Nc1ccc(C(=O)N2CCC[C@H]3CCCC[C@@H]32)cc1 |
| 28.2 | CC(C)(Oc1ccc(C#N)cn1)C(=O)N[C@H]1C2CC3CC1C[C@](C(N)=O)(C3)C2 |
| 43.7 | CC(C)(Oc1ccc(N2CCOCC2)cn1)C(=O)N[C@H]1C2CC3CC1C[C@](C(N)=O)(C3)C2 |
| 182 | O=C(c1ccc(C(=O)N2CCC[C@H]3CCCC[C@@H]32)cc1)N1CCCc2ccccc21 |
| 40.7 | CC(C)(Oc1ccc(Cl)cc1)C(=O)N[C@H]1C2CC3CC1C[C@](Cc1nnn[nH]1)(C3)C2 |
